Laboratory results taken from PMC8348110, “A Novel Peptide Derived from the Transmembrane Domain of Romo1 Is a Promising Candidate for Sepsis Treatment and Multidrug-Resistant Bacteria” (International Journal of Molecular Sciences, 2021).
Values after ≈ are worked out from the molar mass of the structure shown. Residues, ends and D or L forms follow the SMILES beside them.

How the values were obtained:
[1] = test system: Carbapenem-resistant A. baumannii, clinical isolate; format: cell-based, Acinetobacter baumannii; details: 1 h
From the text: (§1) Acinetobacter baumannii (ATCC 19606), B. subtilis (ATCC 6633), E. aerogenes (ATCC 13048), E. coli (ATCC 25922), E. faecalis (ATCC 19433), E. faecium (ATCC 19434), K. pneumoniae (ATCC 13883), P. aeruginosa (ATCC 27853), S. aureus (ATCC 29213), S. sindenensis (ATCC 23963), and MRSA (ATCC 33591) were purchased from the American Type Culture Collection (ATCC; Gaithersburg, MD, USA). Streptococcus pneumoniae (NCCP 14585), vancomycin-resistant E. faecium (NCCP 11522), and vancomycin-resistant S. aureus (NCCP 15872) were purchased from the National Culture Collection for Pathogens (NCCP; Cheongju, Korea). The isolation and use of carbapenem-resistant bacterial strains from a patient were approved (2015AN0129) by the Institutional Review Board (IRB) of Korea University Hospital. […]
(§2) The minimum bactericidal concentration (MBC) was determined as previously described with minor modifications. […] The value of MBC was determined at the lowest concentrations at which no colonies were identified.
(§3) We used the CFU counting method to measure antibacterial activity, with all bacteria cultured to the mid-log phase in an appropriate broth medium. Bacterial CFUs were counted after overnight culture at 37 °C on TS or LB agar plates. The MBC value and antibacterial activity in blood components were determined as previously described. […]

[2] = test system: Enterobacter aerogenes ATCC 13048; assay: Modified MBC determination; format: cell-based; details: Table 2
Protocol: (§4) The minimum bactericidal concentration (MBC) was determined as previously described with minor modifications. Briefly, bacteria were cultured in the mid-log phase and diluted to 5 × 10^5 colony-forming unit (CFU)/mL in 10 mM sodium phosphate buffer (pH 7.4) with a 1% volume of TS broth. They were incubated for 1 h with various peptides which were two-fold diluted serially from 64 μg/mL to 0 μg/mL concentrations in a 96-well plate. The samples were inoculated TS agar plate and incubated overnight at 37 °C. The value of MBC was determined at the lowest concentrations at which no colonies were identified.
(§5) We used the CFU counting method to measure antibacterial activity, with all bacteria cultured to the mid-log phase in an appropriate broth medium. Bacterial CFUs were counted after overnight culture at 37 °C on TS or LB agar plates. The MBC value and antibacterial activity in blood components were determined as previously described. Mouse and human whole blood were collected and diluted with PBS (pH 7.4) to measure the ex vivo antibacterial activity of AMPR-22. For that test, AMPR-22 (10 μg) was added to each whole blood solution and incubated at 37 °C with shaking at 200 rpm. At each time point, it was incubated with bacteria (1 × 10^3 CFU) for 30 min. Each sample was inoculated on an LB agar plate, and CFU counting was performed. To measure the in vivo activity of AMPR-22, 1 × 10^8 CFU of bacteria were injected into BALB/c mice, and an hour later, 10 mg/kg of the test peptides were injected. Blood samples were collected by tail cut, serially diluted with PBS (pH 7.4), and inoculated on LB-agar plates, followed by CFU counting. To estimate the functional half-life of AMPR-22, 40 mg/kg of each tested peptide were injected into mice. Whole blood sampling was performed by cardiac puncture, and the plasma was isolated by centrifugation (2000× g, 15 min). The isolated plasma was incubated with bacteria (1 × 10^3 CFU) for an hour, and then the CFU counting method was performed.

[3] = test system: Escherichia coli ATCC 25922; assay: Modified MBC determination; format: cell-based; details: Table 2
Protocol: as §4, §5

[4] = test system: Klebsiella pneumoniae ATCC 13883; assay: Modified MBC determination; format: cell-based; details: Table 2
Protocol: as §4, §5

[5] = test system: Acinetobacter baumannii ATCC 19606; assay: Modified MBC determination; format: cell-based; details: Table 2
Protocol: as §4, §5

[6] = test system: Enterococcus faecium ATCC 19434; assay: Modified MBC determination; format: cell-based; details: Table 2
Protocol: as §4, §5

[7] = test system: Enterococcus faecalis ATCC 19433; assay: Modified MBC determination; format: cell-based; details: Table 2
Protocol: as §4, §5

[8] = test system: Bacillus subtilis ATCC 6633; assay: Modified MBC determination; format: cell-based; details: Table 2
Protocol: as §4, §5

[9] = test system: Streptomyces sindenensis ATCC 23963; assay: Modified MBC determination; format: cell-based; details: Table 2
Protocol: as §4, §5

[10] = test system: Vancomycin-resistant S. aureus NCCP 15872; format: cell-based, Staphylococcus aureus; details: Vancomycin-resistant NCCP 15872, 1 h
Protocol: as §4, §5

[11] = test system: Methicillin-resistant S. aureus (MRSA) ATCC 33591; format: cell-based, Staphylococcus aureus; details: Table 2; ATCC 33591; modified MBC
Protocol: as §4, §5

[12] = test system: Carbapenem-resistant P. aeruginosa (CRPA), clinical isolate; format: cell-based, Pseudomonas aeruginosa; details: 1 h
From the text: Acinetobacter baumannii (ATCC 19606), B. subtilis (ATCC 6633), E. aerogenes (ATCC 13048), E. coli (ATCC 25922), E. faecalis (ATCC 19433), E. faecium (ATCC 19434), K. pneumoniae (ATCC 13883), P. aeruginosa (ATCC 27853), S. aureus (ATCC 29213), S. sindenensis (ATCC 23963), and MRSA (ATCC 33591) were purchased from the American Type Culture Collection (ATCC; Gaithersburg, MD, USA). Streptococcus pneumoniae (NCCP 14585), vancomycin-resistant E. faecium (NCCP 11522), and vancomycin-resistant S. aureus (NCCP 15872) were purchased from the National Culture Collection for Pathogens (NCCP; Cheongju, Korea). The isolation and use of carbapenem-resistant bacterial strains from a patient were approved (2015AN0129) by the Institutional Review Board (IRB) of Korea University Hospital. CRPA, CRKP, and CRAB were clinically isolated in Korea University Hospital (Seoul, Korea). CRPA was confirmed to be resistant to piperacillin, piperacillin-tazobactam, ceftazidime, imipenem, meropenem, gentamicin, amikacin, and ciprofloxacin. CRAB was confirmed to be resistant to piperacillin, piperacillin-tazobactam, cefepime, ceftazidime, imipenem, meropenem, gentamicin, amikacin, and ciprofloxacin. CRKP was confirmed to be resistant to piperacillin-tazobactam, cefepime, ceftazidime, imipenem, gentamicin, and ciprofloxacin. All strains were stored at –80 °C in 50% glycerol and 50% Luria-Bertani (LB) or tryptic soy (TS) broth, grown on LB or TS plates, and aerated at 37 °C.
as §4, §5

[13] = test system: Carbapenem-resistant K. pneumoniae, clinical isolate; format: cell-based, Klebsiella pneumoniae; details: 1 h
From the text: as §1, §2, §3

human erythrocytes = assay: Hemolysis assay; format: cell-based; details: 2% erythrocytes in PBS, 1 h 37 °C, absorbance 550 nm; up to / at 256 µg/mL
Protocol: For the hemolytic assay, mouse and human whole blood was diluted with PBS (pH 7.4) and centrifuged for 10 min at 500× g. After removing the supernatant and rinsing the pellet three times with PBS, we resuspended the erythrocytes in PBS at 2% volume. The blood solution was added to the solution of peptides with two-fold serial dilution on a 96-well plate. After incubation for an hour at 37 °C, the plate was centrifuged at 2500× g for 10 min, and the absorbance of the supernatant was measured at 550 nm. The PBS-treated sample was the negative control, and the 0.1% Triton X-100–treated sample was the positive control. To measure white blood cell toxicity, mouse and human PBMCs were freshly isolated as previously described, and 70% ethanol (positive control) or AMPR-22 was administered using two-fold diluted concentrations (0 to 256 μg/mL) for 30 min. To measure cell death, a LIVE/DEAD® fixable green dead cell stain kit (Thermo Fisher Scientific, Waltham, MS, USA) was used following the manufacturer′s instructions, and flow cytometry was performed using a FACS Canto II (BD Biosciences, CA, USA). The toxicity of AMPR-22 was compared with negative (PBS-treated) and positive controls, and the data were analyzed using FlowJo software (Tree Star, OR, USA).

[14] = test system: Vancomycin-resistant E. faecium NCCP 11522; format: cell-based, Enterococcus faecium; details: Vancomycin-resistant NCCP 11522, 1 h
Protocol: as §4
We used the CFU counting method to measure antibacterial activity, with all bacteria cultured to the mid-log phase in an appropriate broth medium. Bacterial CFUs were counted after overnight culture at 37 °C on TS or LB agar plates. The MBC value and antibacterial activity in blood components were determined as previously described. Mouse and human whole blood were collected and diluted with PBS (pH 7.4) to measure the ex vivo antibacterial activity of AMPR-22. For that test, AMPR-22 (10 μg) was added to each whole blood solution and incubated at 37 °C with shaking at 200 rpm. At each time point, it was incubated with bacteria (1 × 10^3 CFU) for 30 min. Each sample was inoculated on an LB agar plate, and CFU counting was performed. […]

[15] = test system: Streptococcus pneumoniae NCCP 14585; format: cell-based; details: NCCP 14585, 1 h
Protocol: as §4, §5

[16] = test system: Pseudomonas aeruginosa ATCC 27853; format: cell-based
Protocol: as §4, §5

[17] = test system: Staphylococcus aureus ATCC 29213; format: cell-based
Protocol: as §4, §5

P. aeruginosa = assay: Serial passage assay (acquisition of drug resistance); format: cell-based, Pseudomonas aeruginosa; details: sub-MBC treatment
Protocol: For the PI uptake assay, bacteria were cultured in the mid-log phase and diluted to 5 × 10^5 CFU/mL in PBS (pH 7.4). The peptides were treated with 40 μg/mL for 10 min, and then 10 μM PI was added and incubated for 20 min. The PI fluorescence was measured with a flow cytometric assay using a FACS Canto II (BD Biosciences, CA, USA), and the data were analyzed using FlowJo software (Tree Star, Ashland, OR, USA). NPN uptake and a membrane depolarization assay were performed as previously described, with some changes. Briefly, 1 × 10^4 CFU/mL of bacteria were place on a 96-well plate, and then 10 μM NPN or 4 μM DiSC3(5) was added, and AMPR-22 was administered. The fluorescence signal was measured for 10 min using a SpectraMax Plus 384 microplate reader (Molecular Devices, San Jose, CA, USA). For the NPN uptake assay, AMPR-22 was administered 3 min after the start of the fluorescence measurements. The ATP leakage assay was performed using a BacTiter-glo™ kit (Promega, Madison, WI, USA) and the manufacturer’s instructions with minor modifications. […] The luminescence signal was measured using a SpectraMax Plus 384 microplate reader (Molecular Devices, San Jose, CA, USA). […] Sub-MBC concentrations of peptide were administered to 1 mL of cultured cells, and then the MBC values were determined for every passage. […]

SMILES: CC[C@H](C)[C@H](NC(=O)CNC(=O)[C@H](CCSC)NC(=O)CNC(=O)[C@@H](NC(=O)[C@H](C)NC(=O)[C@H](CCSC)NC(=O)[C@H](Cc1ccccc1)NC(=O)[C@@H](NC(=O)CNC(=O)[C@H](Cc1ccccc1)NC(=O)[C@H](CCCCN)NC(=O)CNC(=O)CNC(=O)[C@H](CCCCN)NC(=O)[C@H](CCCCN)NC(=O)[C@H](CCSC)NC(=O)[C@H](CCSC)NC(=O)[C@H](CCCCN)NC(=O)[C@@H](N)CCCCN)[C@@H](C)O)[C@@H](C)CC)C(=O)N[C@@H](CCCNC(=N)N)C(=O)O [AMPR-21] (H-KKMMKKGGKFGTFMAIGMGIR-OH)
- MBC Value, Carbapenem-resistant A. baumannii [1]: 2 µg/mL (≈ 0.863 µM)
- MBC Value, Enterobacter aerogenes [2]: 4 µg/mL (≈ 1.73 µM)
- MBC Value, Escherichia coli [3]: 4 µg/mL (≈ 1.73 µM)
- MBC Value, Klebsiella pneumoniae [4]: 4 µg/mL (≈ 1.73 µM)
- MBC Value, Acinetobacter baumannii [5]: 4 µg/mL (≈ 1.73 µM)
- MBC Value, Enterococcus faecium [6]: 8 µg/mL (≈ 3.45 µM)
- MBC Value, Enterococcus faecalis [7]: 8 µg/mL (≈ 3.45 µM)
- MBC Value, Bacillus subtilis [8]: 2 µg/mL (≈ 0.863 µM)
- MBC Value, Streptomyces sindenensis [9]: 4 µg/mL (≈ 1.73 µM)
- MBC Value, Vancomycin-resistant S. aureus [10]: 8 µg/mL (≈ 3.45 µM)
- MBC Value, Methicillin-resistant S. aureus [11]: 8 µg/mL (≈ 3.45 µM)
- MBC Value, CRPA [12]: 4 µg/mL (≈ 1.73 µM)
- MBC Value, Carbapenem-resistant P. aeruginosa [12]: 4 µg/mL (≈ 1.73 µM)
- MBC Value, Carbapenem-resistant K. pneumoniae [13]: 8 µg/mL (≈ 3.45 µM)
- Hemolytic activity against human erythrocytes (human erythrocytes): negligible hemolytic activity
- MBC Value, Vancomycin-resistant E. faecium [14]: 8 µg/mL (≈ 3.45 µM)
- MBC Value, Streptococcus pneumoniae [15]: 8 µg/mL (≈ 3.45 µM)
- MBC Value, P. aeruginosa ([16]; ATCC 27853, 1 h): 4 µg/mL (≈ 1.73 µM)
- MBC Value, Pseudomonas aeruginosa ([16]; Table 2, ATCC 27853, modified MBC): 4 µg/mL (≈ 1.73 µM)
- MBC Value, S. aureus ([17]; ATCC 29213, 1 h, pH 7.4): 8 µg/mL (≈ 3.45 µM)
- MBC Value, Staphylococcus aureus ([17]; Table 2, ATCC 29213, modified MBC): 4 µg/mL (≈ 1.73 µM)

SMILES: CNC(C)C1CCC(N)C(OC2C(N)CC(N)C(OC3OCC(C)(O)C(NC)C3O)C2O)O1 (centres unmarked) [gentamicin]
- Passages after which resistance developed (P. aeruginosa): nine
- Increase of the modified MBC value after 30 passages (P. aeruginosa; 30 passages): 64 fold
